In PubChem BioAssay (NCI):
Values joined by “and” are separate entries in the source; they are usually repeats but may differ in a detail not shown here. Identical values can stand only once.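 These data come from cells grown in 96-well plates and exposed to compound for 48 hours at five concentrations. Abbreviation: GI50, concentration required for 50% inhibition of growth. TGI is the concentration that stops growth completely.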

Assays:
Assay in all cases: growth of human tumour cells (NCI), 48 h
ACHN renal = tested on: ACHN renal
LOX IMVI melanoma = tested on: LOX IMVI melanoma
RXF 393 renal = tested on: RXF 393 renal
SNB-75 CNS = tested on: SNB-75 CNS
SF-539 CNS = tested on: SF-539 CNS
UACC-62 melanoma = tested on: UACC-62 melanoma
RPMI-8226 leukemia = tested on: RPMI-8226 leukemia
HCC-2998 colon = tested on: HCC-2998 colon
XF 498 CNS = tested on: XF 498 CNS
DLD-1 colon = tested on: DLD-1 colon

| SMILES | GI50 (ACHN renal) | TGI (ACHN renal) | GI50 (LOX IMVI melanoma) [µM] | TGI (LOX IMVI melanoma) | GI50 (RXF 393 renal) [µM] | TGI (RXF 393 renal) | GI50 (SNB-75 CNS) [µM] | TGI (SNB-75 CNS) [µM] | GI50 (SF-539 CNS) [µM] | TGI (SF-539 CNS) | GI50 (UACC-62 melanoma) [µM] | TGI (UACC-62 melanoma) | GI50 (RPMI-8226 leukemia) [µM] | TGI (RPMI-8226 leukemia) | GI50 (HCC-2998 colon) | TGI (HCC-2998 colon) [µM] | TGI (XF 498 CNS) [µM] | TGI (DLD-1 colon) [µM] | GI50 (DLD-1 colon) [µM] |
| --- | --- | --- | --- | --- | --- | --- | --- | --- | --- | --- | --- | --- | --- | --- | --- | --- | --- | --- | --- |
| CN(C)c1ccc(/C=C2\N=C(c3ccccc3)N(c3cc(C(F)(F)F)ccc3Cl)C2=O)cc1 | > 100 µM | > 100 µM | > 100 | > 100 µM | > 100 | > 100 µM | > 100 | > 100 | > 100 | > 100 µM | > 100 | > 100 µM | 35.7 | > 100 µM | > 100 µM | > 100 | – | – | – |
| C=C1C(=O)O[C@H]2[C@H]1CC/C(COC(=O)NCc1ccc(OC)cc1)=C\CC[C@@]1(C)O[C@@H]21 | 0.58 µM | 1.49 µM | 0.405 | 1.47 µM | 0.509 | 1.07 µM | 1 | 15.3 | 0.973 | 3.65 µM | 1.59 | 3.16 µM | 0.683 | 2.3 µM | 1.75 µM | 6.67 | – | – | – |
| CCN1CCN(c2cc(C)nc(N(CCCNc3ccnc4cc(Cl)ccc34)Cc3ccc4c(c3)OCO4)n2)CC1 | 3.16 µM | 10.6 µM | 1.89 | 3.7 µM | 1.52 | 3.38 µM | 1.59 | 3.57 | 1.73 | 3.21 µM | 1.85 | 3.51 µM | 1.8 | 4.49 µM | 2.4 µM | 5.39 | – | – | – |
| NS(=O)(=O)c1ccc(N=Nc2c(O)[nH]c3ccc(C(=O)NCc4ccncc4)cc23)cc1 | > 25 µM | > 25 µM | > 25 | > 25 µM | > 25 | > 25 µM | > 25 | > 25 | > 25 | > 25 µM | > 25 | > 25 µM | > 25 | > 25 µM | > 25 µM | > 25 | – | – | – |
| O=[N+]([O-])c1nccn1CC(O)CN1CCCCC1 (stereo unspecified) | – | > 100 µM | – | > 100 µM | – | > 100 µM | – | > 100 | – | > 100 µM | – | > 100 µM | – | > 100 µM | – | > 100 | – | – | – |
| CN(C)/C=N\c1ccnc(=O)[nH]1 | – | > 100 µM | – | > 100 µM | – | > 100 µM | – | > 100 | – | > 100 µM | – | > 100 µM | – | > 100 µM | – | – | > 100 | > 100 | – |
| COc1cc2ncnc(-n3ncc4cc(NC(=O)Nc5ccc(Cl)c(Cl)c5)ccc43)c2cc1OC | 1.45 µM | 3.25 µM | 1.97 | 3.76 µM | 1.53 | 3.29 µM | 1.24 | 3.41 | 0.612 | 2.47 µM | 1.7 | 3.44 µM | 2.11 | 7.52 µM | 2.61 µM | 8.87 | – | – | – |
| CC(C)(O)/C=C/C(=O)[C@](C)(O)[C@H]1[C@H](O)C[C@@]2(C)[C@@H]3CC=C4[C@@H](C[C@H](O)C(=O)C4(C)C)[C@]3(C)C(=O)C[C@]12C | 0.197 µM and 1.28 µM | 0.931 µM and 8.45 µM | 0.0441 | 0.198 µM and 0.193 µM | 0.187 | 0.408 µM and 0.263 µM | 0.0496 | – | 0.217 | 0.614 µM and 0.264 µM | 0.0736 | 0.947 µM and 2.44 µM | 0.0666 | 0.915 µM and 0.824 µM | 0.371 µM and 0.647 µM | 8.67 | – | 8.08 | 0.119 |
| N#C/C(=C\c1cccc(O)c1O)C(N)=O | – | > 100 µM | – | – | – | 28 µM | – | 47.2 | – | > 100 µM | – | > 100 µM | – | 65.6 µM | – | 46.9 | 95.6 | > 100 | – |
| CN1CCN(Cc2ccc(NC(=O)c3cncc(C#Cc4cnc(N)cc4C#N)c3)cc2C(F)(F)F)CC1 | 1.57 µM | 9.39 µM | 0.601 | 1.99 µM | 1.45 | 5.55 µM | 5.92 | 19.8 | 0.959 | 3.55 µM | 0.877 | 3.92 µM | 3.83 | 21 µM | 3.9 µM | 15.4 | – | – | – |
| O=C(/C=C/c1ccc(C(F)(F)F)cc1)Nc1ccc(C=C2c3ccccc3C(=O)c3ccccc32)cc1 | 19.4 µM | > 100 µM | 14.2 | > 100 µM | 8.26 | 60.4 µM | 7.26 | 39.1 | 23.1 | 96.3 µM | 3.04 | 63.7 µM | 1.15 | 85.9 µM | 8.71 µM | > 100 | – | – | – |
| Cc1c(C(=O)/C=C/C=C/c2ccccc2)[n+](=O)c2ccccc2n1[O-] | – | 60.8 µM | – | > 100 µM | – | – | – | > 100 | – | > 100 µM | – | 30.2 µM | – | – | – | 36.7 | 95.3 | 29 | – |
| Cc1ccc(Oc2ccccc2N)cc1 | – | – | – | > 100 µM | – | > 100 µM | – | 60.6 | – | 40.1 µM | – | > 100 µM | – | > 100 µM | – | 34.2 | > 100 | > 100 | – |
| Cc1cc(C)c2c(n1)sc1c(N)ncnc12 | 14.2 µM | > 25 µM | > 25 | > 25 µM | 8.72 | > 25 µM | > 20.8 | > 25 | > 24.1 | > 25 µM | > 25 | > 25 µM | > 25 | > 25 µM | > 25 µM | > 25 | – | – | – |
| NNc1cnn(-c2ccccc2)c(=O)c1Cl | – | > 100 µM | – | > 100 µM | – | > 100 µM | – | > 100 | – | > 100 µM | – | > 100 µM | – | > 100 µM | – | – | – | > 100 | – |
| Cc1cccc2c1c1ccc3c(c1n2C)C(=O)C=CC3=O | – | 18 µM | – | 6.58 µM | – | 7.86 µM | – | 42.8 | – | 15 µM | – | 26.5 µM | – | 13.2 µM | – | 32.8 | – | 5.21 | – |
| COC(=O)C(CCC(=O)CCl)N1C(=O)c2ccccc2C1=O (stereo unspecified) | – | 13.9 µM | – | 4.02 µM | – | 6.45 µM | – | 29.3 | – | 22 µM | – | 26 µM | – | 20.7 µM | – | 22.5 | – | – | – |
| C#CCNC(=O)ON1C(=O)CCC1=O | – | > 100 µM | – | > 100 µM | – | > 100 µM | – | > 100 | – | > 100 µM | – | > 100 µM | – | > 100 µM | – | – | – | > 100 | – |
